# Experimental data reported in patent publication US5668168A, “1,2-dithiin antiinfective agents” (Shaman Pharmaceuticals, Inc., priority 1995, dated 1997).
# Read-outs that look alike come from different tables or passages of the source.
# Assays:
# [1] = test system: Cryptococcus neoformans ATCC 36556; test: In vitro susceptibility, microdilution broth MIC, C. neoformans; assay type: cell-based; conditions: ATCC36556, 48 h
# Experimental: (§1) MIC tests were performed by a microdilution broth assay. The fungi tested were Candida albicans ATCC 10259 and strain B311, Cryptococcus neoformans ATCC 36556, Aspergillus fumigatus ATCC 13073, and Trichophyton rubrum ATCC 18762. The yeasts were propagated on yeast morphology agar, while the filamentous fungi were grown on Sabouraud's agar. All tests were performed in Sabouraud's broth in 96-well microliter plates, with compounds diluted serially, then inoculated with 2×10^4 cfu/ml for C. albicans, 4×10^4 cfu/ml for C. neoformans, 1×10^3 cfu/ml for A. fumigatus, and 1×10^3 cfu/ml for T. rubrum (all expressed as final concentrations). Plates were incubated at 30° C. for 48 h for all fungi except T. rubrum, which was incubated for 5 days. MIC's were read as the lowest concentration completely inhibiting growth. After MIC endpoints were determined, 50 ul portions were removed and plated on yeast morphology agar to detect viable organisms, and were incubated at 30° C. for 48 h. The MFC was determined to be the well with the lowest concentration resulting in no growth.
# [2] = test system: Aspergillus fumigatus ATCC 13073; test: In vitro susceptibility, microdilution broth MIC, A. fumigatus; assay type: cell-based; conditions: ATCC13073, 48 h
# Experimental: as §1
# [3] = test system: Candida albicans ATCC 10259; test: In vitro susceptibility, microdilution broth MIC, C. albicans ATCC 10259; assay type: cell-based; conditions: ATCC10259, 48 h
# Experimental: as §1
# [4] = isolated from Aspilia mossambicesis and A. plurisetta; literature; cited from earlier work
# [5] = test system: Trichophyton rubrum ATCC 18762; test: In vitro susceptibility, microdilution broth MIC, T. rubrum; assay type: cell-based; conditions: ATCC18762, 120 h, Table 1a, Sabouraud's broth, 30° C., 5 days
# Experimental: as §1
# [6] = test system: Candida albicans ATCC 10259; test: Minimum fungicidal concentration (MFC), C. albicans ATCC 10259; assay type: cell-based; conditions: ATCC10259, 48 h, read-out: MIC (as headed), C. albicans 10259 (MFC)
# Experimental: as §1
# [7] = test system: Candida albicans strain B311; test: Minimum fungicidal concentration (MFC), C. albicans B311; assay type: cell-based; conditions: B311, 48 h, Table 1a, seventh value column, read-out: MIC (as headed), C. albicans B311 (MFC)
# Experimental: as §1
# [8] = test system: Candida albicans strain B311; test: In vitro susceptibility, microdilution broth MIC, C. albicans B311; assay type: cell-based; conditions: Table 1a, Sabouraud's broth, 30° C., 48 h
# Experimental: as §1
# [9] = test system: dermal irritation and erythema, ear of ICR mice; test: Dermal toxicology (irritation) test in ICR mice; assay type: in vivo; conditions: 10 mg topically
# Experimental: Thiarubrine A and a new 1,2-dithiin compound 3,6-bis(hydroxymethyl)-1,2-dithiin were tested for the ability to elicit dermal irritation in ICR mice. Animals in groups of five each were lightly anesthetized, then the test substance, previously dissolved in aquaphor, was applied in the amount of 10 mg topically to the dorsal aspect of the right ear. Aquaphor without test substance was applied to the left ear as a control. Animals were inspected daily for five days for signs of dermal irritation and erythema, which was scored subjectively on a scale from 1 to 15, with 15 indicating severe toxicity.
# [10] = Systemic toxicology test in ICR mice, intraperitoneal; assay type: in vivo; conditions: mouse, in vivo, ip
# Experimental: (§2) Thiarubrine A and the novel 3,6-bis(hydroxymethyl)-1,2-dithiin have also been evaluated for their systemic toxicity potential. ICR mice, in groups of five or six each were injected with solutions of the test compound given intraperitoneally for three consecutive days for thiarubrine A and five consecutive days for the 1,2-dithiin. Animals were weighed daily and observed for mortalities over a 14 day period. An LD50 of 0.6 mg/kg for thiarubrine A was determined.
# ICR mice = test: as above; assay type: in vivo; conditions: three consecutive days
# Experimental: as §2
# fungi = test: In vitro susceptibility tests (MIC and MFC), overall statements; assay type: cell-based; conditions: Candida, Cryptococcus, Aspergillus, medically important fungi
# Experimental: as §1
# [11] = Table 1b, Sabouraud's broth, 30° C., read-out: MIC C. neoformans
# [12] = Table 1b, Sabouraud's broth, 30° C., read-out: MIC A. fumigatus
# [13] = Table 1b, Sabouraud's broth, 30° C., read-out: MIC C. albicans 10259
# [14] = Table 1a, Sabouraud's broth, 30° C., read-out: MIC C. albicans 10259
# [15] = Table 1a, Sabouraud's broth, 30° C., read-out: MIC C. neoformans
# [16] = Table 1a, Sabouraud's broth, 30° C., read-out: MIC A. fumigatus
SMILES,"MIC [1, 11]","MIC [2, 12]","MIC [3, 13]","MIC [3, 14]","MIC [1, 15]","MIC [2, 16]",MFC ([6]; Table 1a),further results
"O=C(OCC1=CC=C(COC(=O)C2CC2)SS1)C1CC1 [Dithiin I, 3,6-Bis(cyolopropanecarbonyloxymethyl)-1,2-dithiin]",3.1 µg/mL,1.6 µg/mL,6.3 µg/mL,–,–,–,–,–
C=CC#CC1=CC=C(C#CC#CC)SS1 [thiarubrine B],–,–,–,–,–,–,–,Biological activity (in words) [4]: wide spectrum of biological activity including antiviral and antibiotic activities
COCOCC1=CC=C(COCOC)SS1 [Dithiin D],–,–,–,31 µg/mL,8 µg/mL,63 µg/mL,> 250 µg/mL,MIC [5]: 8 µg/mL; MFC [7]: 125 µg/mL; MIC [8]: 125 µg/mL
"C=CC#CC#CC1=CC=C(C#CC)SS1 [Thia A, thiarubrine A]",–,–,–,–,–,–,–,"Biological activity (in words) [4]: wide spectrum of biological activity including antiviral and antibiotic activities; Dermal irritation and erythema ([9]; five days): pronounced toxicity; Average score for dermal irritation, treated ear, Day 3 ([9]; Day 3, scale 1 to 15): 7; Average score for dermal irritation, treated ear, Day 4 ([9]; Day 4, scale 1 to 15): 9; Average score for dermal irritation, treated ear, Day 5 ([9]; Day 5, scale 1 to 15, control ear 4): 9; Average score for dermal irritation, treated ear, Day 2 ([9]; first column pair of Table 2, headed Day 2, scale 1 to 15): 4; Average score for dermal irritation, treated ear, Day 2 ([9]; second column pair of Table 2, headed Day 2, scale 1 to 15): 6; MIC ([1]; read-out: MIC C. neoformans, Table 1a, Sabouraud's broth, 30° C.): 0.61 µg/mL; MIC ([1]; read-out: MIC C. neoformans, Table 1b, Sabouraud's broth, 30° C.): 0.78 µg/mL; MIC ([2]; read-out: MIC A. fumigatus, Table 1a, Sabouraud's broth, 30° C.): 0.15 µg/mL; MIC ([2]; read-out: MIC A. fumigatus, Table 1b, Sabouraud's broth, 30° C.): 0.1 µg/mL; LD50 at 336 h ([10]; three consecutive days, 14 day observation, read-out: LD50): 0.6 mg/kg; LD50 at 336 h ([10]; total dose over three days, read-out: LD50, total dose): ~1.8 mg/kg; Systemic toxicity (in words) (ICR mice): highly toxic; MIC ([3]; read-out: MIC C. albicans 10259, Table 1a, Sabouraud's broth, 30° C.): 0.15 µg/mL; MIC ([3]; read-out: MIC C. albicans 10259, Table 1b, Sabouraud's broth, 30° C.): 0.39 µg/mL; MFC [6]: 0.3 µg/mL"
"CCC(=O)OCC1=CC=C(COC(=O)CC)SS1 [Dithiin G, 3,6-Bis(propionyloxymethyl)-1,2-dithiin]",6.3 µg/mL,3.1 µg/mL,12.5 µg/mL,–,–,–,–,–
"CC(C)C(=O)OCC1=CC=C(COC(=O)C(C)C)SS1 [Dithiin H, 3,6-Bis(isobutyryloxymethyl)-1,2-Dithiin]",> 100 µg/mL,> 100 µg/mL,> 100 µg/mL,–,–,–,–,–
"OCC1=CC=C(CO)SS1 [Dithiin A, 3,6-Bis(hydroxymethyl)-1,2-dithiin]",1.6 µg/mL,6.3 µg/mL,25 µg/mL,16 µg/mL,2 µg/mL,16 µg/mL,63 µg/mL,In vitro antifungal activity (in words) (fungi): potent broad spectrum antifungal activity; MIC [5]: 16 µg/mL; MIC [8]: 31 µg/mL

# Now from value to compound, other results behind:
"MIC [1, 11]","MIC [2, 12]","MIC [3, 13]","MIC [3, 14]","MIC [1, 15]","MIC [2, 16]",SMILES,MFC ([6]; Table 1a),further results
–,–,–,12.5 µg/mL,–,–,CC1=CC=C(CO)SS1 [Dithiin C],–,–
1.6 µg/mL,0.8 µg/mL,3.1 µg/mL,–,–,–,O=C(OCC1=CC=C(CO)SS1)C1CC1 [Dithiin J],–,–
–,–,–,8 µg/mL,4 µg/mL,8 µg/mL,"O=CC1=CC=C(C=O)SS1 [Dithiin E, 3,6-Diformyl-1,2-dithiin]",8 µg/mL,MIC [5]: 4 µg/mL; MFC [7]: 8 µg/mL; MIC [8]: 8 µg/mL
0.8 µg/mL,0.2 µg/mL,3.1 µg/mL,3.1 µg/mL,0.8 µg/mL,0.4 µg/mL,"CC(=O)OCC1=CC=C(COC(C)=O)SS1 [Dithiin B, 3,6-Bis(acetyloxymethyl)-1,2-dithiin]",6.3 µg/mL,–
